Tests used:
[1] = system: C2C12 myoblasts; assay: C2C12 myoblast differentiation; format: cell-based, mouse; conditions: C2C12, 30 μM myriocin vs DMSO
Protocol: (§1) Cell culture and cell transfection. The C2C12 mouse myoblast cell line was obtained from the American Type Culture Collection (CRL-1772™). C2C12 cells or clones were cultured in growth medium consisting of Dulbecco's modified Eagle's medium (Gibco, 41966-029), 20% Fetal Bovine Serum (Gibco, 10270-106) and 100 U/mL penicillin and […] streptomycin (Gibco, 15140-122). To induce differentiation, FBS was substituted with 2% horse serum (Gibco, 16050-122). Trypsin-EDTA 0.05% (GIBCO, 25300-062) was used to detach cells. Human skeletal muscle cells were obtained from Lonza (SkMC, #CC-2561) and cultured in growth medium consisting of DMEM/F12 (Gibco, 10565018), 20% Fetal Bovine Serum (Gibco, 10270-106) and 100 U/mL penicillin and […] streptomycin (Gibco, 15140-122). To induce differentiation, FBS was reduced to 2% and kept in culture. All cells were maintained at 37° C. with 5% CO2. Cell transfections were done using TransiT (Mirus) according to the manufacturer's protocol with a 3:1 ratio of transfection agent to DNA. C2C12 cells were grown confluent, and 30 μM myriocin or DMSO was added and cells were kept in growth medium for another 3 days. Sptlc1 clones were plated to reach confluency simultaneously and were kept in growth medium for 3 days before using them for immunocytochemistry or RNA isolation. The concentration of myriocin in medium for all experiments was 30 μM. A stock solution of 20 mM myriocin in DMSO was used dissolve myriocin, and a corresponding volume of DMSO without myriocin was used as control.
RNA isolation and real time qPCR. RNA was isolated using the RNeasy Mini kit (Qiagen, 74106) and reverse transcribed with the High-Capacity-RNA-to-cDNA kit (Thermo Fisher, 4387406). Gene expression was measured by qPCR using the Power SybrGreen Master mix (Thermo Fisher, 4367659). All quantitative polymerase chain reaction (PCR) results were calculated relative to the mean of the housekeeping gene Gapdh. The average of two technical replicates was used for each biological data point.
Immunocytochemistry. C2C12 cells cultured on a sterilized cover slip in 6-well plates (Greiner bio-one, CELLSTAR, 657160) were fixed in Fixx solution (Thermo Scientific, 9990244) for 15 min and permeabilized in 0.1% Triton X-100 (Amresco, 0694) solution for 15 min at room temperature. Cells were blocked in 3% BSA for 1 h at room temperature to avoid unspecific antibody binding and then incubated with primary antibody over night at 4° C. with gentle shaking. […] The immunofluorescence images were acquired using either fluorescence or confocal microscopy. The myofusion index was calculated as the ratio of nuclei within myotubes to total nuclei. The myotube diameter was measured for 8 myotubes per image using ImageJ. Myotube area was calculated as the total area covered by myotubes.

[2] = system: human primary myoblasts; assay: Human primary myoblast differentiation; format: cell-based; conditions: 30 μM myriocin vs DMSO
Protocol: as §1, with “C2C12 cells were grown confluent, and 30 μM myriocin or DMSO was added and cells were kept in growth medium for another 3 days. Sptlc1 clones were plated to reach confluency simultaneously and were kept in growth medium for 3 days before using them for immunocytochemistry or RNA isolation. The concentration of myriocin in medium for all experiments was 30 μM. A stock solution of 20 mM myriocin in DMSO was used dissolve myriocin, and a corresponding volume of DMSO without myriocin was used as control.” left out
Immunocytochemistry. […] The immunofluorescence images were acquired using either fluorescence or confocal microscopy. The myofusion index was calculated as the ratio of nuclei within myotubes to total nuclei. The myotube diameter was measured for 8 myotubes per image using ImageJ. Myotube area was calculated as the total area covered by myotubes.

In the case of `CCCCCCC(=O)CCCCCCC=CCC(O)C(O)C(N)(CO)C(=O)O` (stereo not drawn) [myriocin, 2-Amino-3,4-dihydroxy-2-(hydroxymethyl)-14-oxoicos-6-enoic acid], the fusion index [1] is reported as “greater”, the myoblast differentiation [1] is reported as “accelerated” and the “myogenic transcript signature (Myog, Myh4, Myh1)” value [1] is reported as “upregulation”. For the same molecule, the myotube area [1] was “greater”, the human myoblast differentiation [2] was “accelerated” and the myotube area [2] was “larger”.

— patent US20220288004A1, “TREATMENT AND PREVENTION OF AGING RELATED-DISEASE AND/OR AGING BY THE INHIBITION OF SPHINGOLIPIDS” (ECOLE POLYTECHNIQUE FEDERALE DE LAUSANNE (EPFL), priority 2019, published 2022)
